Assays:
Assay in all cases: Color, fluorescence and growth of colonies on Columbia medium with nitroreductase substrate
Assay type in all cases: cell-based
[1] = tested on: Candida glabrata NCPF 3 943; design: key to Growth: NG: no growth; 0.5: low growth; 1: moderate growth; 2: good growth; key to Fluo.: fluorescence of the colonies / Col.: color of the colonies: —: no color/fluorescence; conditions: 40 mg substrate in 400 ml Columbia medium, 24 hours at 37° C.; for Fluo.: fluorescence of the colonies: UV lamp at 365 nm; for Col.: color of the colonies: examined visually
Procedure: (§1) 40 mg of each of the substrates were dissolved in 4 ml of dimethylsulfoxide and added to 400 ml of previously autoclaved Columbia medium. The 5 media were distributed in Petri dishes 90 mm in diameter at the rate of 20 ml per dish. Seventeen strains of microorganisms obtained from collections and belonging to various species of bacteria and yeasts are inoculated as spots of about 10 000 colony forming units. The media are incubated for 24 hours at 37° C. and then the colonies formed are examined visually and under a UV lamp at 365 nm.

[2] = tested on: Salmonella typhimurium NCTC 74; design: key to Growth: NG: no growth; 0.5: low growth; 1: moderate growth; 2: good growth; key to Fluo.: fluorescence of the colonies / Col.: color of the colonies: —: no color/fluorescence; conditions: 40 mg substrate in 400 ml Columbia medium, 24 hours at 37° C.; for Fluo.: fluorescence of the colonies: UV lamp at 365 nm
Procedure: as §1

[3] = tested on: Streptococcus pyogenes NCTC 8 306; design: key to Growth: NG: no growth; 0.5: low growth; 1: moderate growth; 2: good growth; key to Fluo.: fluorescence of the colonies / Col.: color of the colonies: —: no color/fluorescence; conditions: 40 mg substrate in 400 ml Columbia medium, 24 hours at 37° C.; for Fluo.: fluorescence of the colonies: UV lamp at 365 nm; for Col.: color of the colonies: examined visually
Procedure: as §1

[4] = tested on: Staphylococcus epidermidis NCTC 11 047; design: key to Growth: NG: no growth; 0.5: low growth; 1: moderate growth; 2: good growth; key to Fluo.: fluorescence of the colonies / Col.: color of the colonies: —: no color/fluorescence; conditions: 40 mg substrate in 400 ml Columbia medium, 24 hours at 37° C.; for Fluo.: fluorescence of the colonies: UV lamp at 365 nm
Procedure: as §1

[5] = tested on: Enterococcus faecalis NCTC 775; design: key to Growth: NG: no growth; 0.5: low growth; 1: moderate growth; 2: good growth; key to Fluo.: fluorescence of the colonies / Col.: color of the colonies: —: no color/fluorescence; conditions: 40 mg substrate in 400 ml Columbia medium, 24 hours at 37° C.; for Fluo.: fluorescence of the colonies: UV lamp at 365 nm
Procedure: as §1

[6] = tested on: Staphylococcus aureus NCTC 11 939; design: key to Growth: NG: no growth; 0.5: low growth; 1: moderate growth; 2: good growth; key to Fluo.: fluorescence of the colonies / Col.: color of the colonies: —: no color/fluorescence; conditions: 40 mg substrate in 400 ml Columbia medium, 24 hours at 37° C.; for Fluo.: fluorescence of the colonies: UV lamp at 365 nm
Procedure: as §1

[7] = tested on: Yersinia enterocolitica NCTC 11 176; design: key to Growth: NG: no growth; 0.5: low growth; 1: moderate growth; 2: good growth; key to Fluo.: fluorescence of the colonies / Col.: color of the colonies: —: no color/fluorescence; conditions: 40 mg substrate in 400 ml Columbia medium, 24 hours at 37° C.; for Fluo.: fluorescence of the colonies: UV lamp at 365 nm; for Col.: color of the colonies: examined visually
Procedure: as §1

[8] = tested on: Providencia rettgeri NCTC 7 475; design: key to Growth: NG: no growth; 0.5: low growth; 1: moderate growth; 2: good growth; key to Fluo.: fluorescence of the colonies / Col.: color of the colonies: —: no color/fluorescence; conditions: 40 mg substrate in 400 ml Columbia medium, 24 hours at 37° C.; for Fluo.: fluorescence of the colonies: UV lamp at 365 nm; for Col.: color of the colonies: examined visually
Procedure: as §1

[9] = tested on: Staphylococcus aureus NCTC 6 571; design: key to Growth: NG: no growth; 0.5: low growth; 1: moderate growth; 2: good growth; key to Fluo.: fluorescence of the colonies / Col.: color of the colonies: —: no color/fluorescence; conditions: 40 mg substrate in 400 ml Columbia medium, 24 hours at 37° C.; for Fluo.: fluorescence of the colonies: UV lamp at 365 nm
Procedure: as §1

[10] = tested on: Enterococcus faecium NCTC 7 171; design: key to Growth: NG: no growth; 0.5: low growth; 1: moderate growth; 2: good growth; key to Fluo.: fluorescence of the colonies / Col.: color of the colonies: —: no color/fluorescence; conditions: 40 mg substrate in 400 ml Columbia medium, 24 hours at 37° C.; for Fluo.: fluorescence of the colonies: UV lamp at 365 nm; for Col.: color of the colonies: examined visually
Procedure: as §1

[11] = tested on: Candida albicans ATCC 90 028; design: key to Growth: NG: no growth; 0.5: low growth; 1: moderate growth; 2: good growth; key to Fluo.: fluorescence of the colonies / Col.: color of the colonies: —: no color/fluorescence; conditions: 40 mg substrate in 400 ml Columbia medium, 24 hours at 37° C.; for Fluo.: fluorescence of the colonies: UV lamp at 365 nm; for Col.: color of the colonies: examined visually
Procedure: as §1

[12] = tested on: Bacillus subtilis NCTC 9 372; design: key to Growth: NG: no growth; 0.5: low growth; 1: moderate growth; 2: good growth; key to Fluo.: fluorescence of the colonies / Col.: color of the colonies: —: no color/fluorescence; conditions: 40 mg substrate in 400 ml Columbia medium, 24 hours at 37° C.; for Fluo.: fluorescence of the colonies: UV lamp at 365 nm
Procedure: as §1

[13] = tested on: Listeria monocytogenes NCTC 11 994; design: key to Growth: NG: no growth; 0.5: low growth; 1: moderate growth; 2: good growth; key to Fluo.: fluorescence of the colonies / Col.: color of the colonies: —: no color/fluorescence; conditions: 40 mg substrate in 400 ml Columbia medium, 24 hours at 37° C.; for Fluo.: fluorescence of the colonies: UV lamp at 365 nm; for Col.: color of the colonies: examined visually
Procedure: as §1

[14] = tested on: Pseudomonas aeruginosa NCTC 10 662; design: key to Growth: NG: no growth; 0.5: low growth; 1: moderate growth; 2: good growth; key to Fluo.: fluorescence of the colonies / Col.: color of the colonies: —: no color/fluorescence; conditions: 40 mg substrate in 400 ml Columbia medium, 24 hours at 37° C.; for Fluo.: fluorescence of the colonies: UV lamp at 365 nm
Procedure: as §1

[15] = tested on: Serratia marcescens NCTC 10 211; design: key to Growth: NG: no growth; 0.5: low growth; 1: moderate growth; 2: good growth; conditions: 40 mg substrate in 400 ml Columbia medium, 24 hours at 37° C.
Procedure: as §1

[16] = tested on: Escherichia coli NCTC 10 418; design: key to Growth: NG: no growth; 0.5: low growth; 1: moderate growth; 2: good growth; conditions: 40 mg substrate in 400 ml Columbia medium, 24 hours at 37° C.
Procedure: as §1

[17] = tested on: Enterobacter cloacae NCTC 11 936; design: key to Growth: NG: no growth; 0.5: low growth; 1: moderate growth; 2: good growth; conditions: 40 mg substrate in 400 ml Columbia medium, 24 hours at 37° C.
Procedure: as §1

COc1cc([N+](=O)[O-])ccc1C=Cc1cc[n+](C)c2ccccc12.[I-] [4NMSMQ^+I, 4-(4′-nitro-2′-methoxystyryl)-N-methylquinolinium iodide]
Growth [1]: NG
Fluo.: fluorescence of the colonies [1]: —
Col.: color of the colonies [1]: —
Growth [2]: 1
Fluo.: fluorescence of the colonies [2]: —
Col.: color of the colonies ([2]; examined visually): —
Growth [3]: 1
Fluo.: fluorescence of the colonies [3]: —
Col.: color of the colonies [3]: —
Growth [4]: 2
Fluo.: fluorescence of the colonies [4]: —
Growth [5]: 2
Fluo.: fluorescence of the colonies [5]: —
Growth [6]: 2
Fluo.: fluorescence of the colonies [6]: —
Growth [7]: 2
Fluo.: fluorescence of the colonies [7]: —
Col.: color of the colonies [7]: —
Growth [8]: 0.5
Fluo.: fluorescence of the colonies [8]: —
Col.: color of the colonies [8]: —
Growth [9]: 2
Fluo.: fluorescence of the colonies [9]: —
Growth [10]: 0.5
Fluo.: fluorescence of the colonies [10]: —
Col.: color of the colonies [10]: —
Growth [11]: 0.5
Fluo.: fluorescence of the colonies [11]: —
Col.: color of the colonies [11]: —
Growth [12]: 2
Fluo.: fluorescence of the colonies [12]: —
Growth [13]: 2
Fluo.: fluorescence of the colonies [13]: —
Col.: color of the colonies [13]: —
Growth [14]: 1
Fluo.: fluorescence of the colonies [14]: —
Col.: color of the colonies ([14]; examined visually): —
Growth [15]: 2
Growth [16]: 2
Growth [17]: 2

C[n+]1ccc(C=Cc2ccc([N+](=O)[O-])cc2)c2ccccc21.[I-] [4NSMQ^+I, 4-(4′-nitrostyryl)-N-methylquinolinium iodide]
Growth [1]: 0.5
Fluo.: fluorescence of the colonies [1]: —
Col.: color of the colonies [1]: —
Growth [2]: 1
Fluo.: fluorescence of the colonies [2]: —
Growth [3]: NG
Fluo.: fluorescence of the colonies [3]: —
Col.: color of the colonies [3]: —
Growth [4]: 1
Fluo.: fluorescence of the colonies [4]: —
Col.: color of the colonies ([4]; examined visually): —
Growth [5]: 1
Fluo.: fluorescence of the colonies [5]: —
Col.: color of the colonies ([5]; examined visually): Rust
Growth [6]: NG
Fluo.: fluorescence of the colonies [6]: —
Col.: color of the colonies ([6]; examined visually): —
Growth [7]: 1
Fluo.: fluorescence of the colonies [7]: —
Col.: color of the colonies [7]: Rust
Growth [8]: 2
Fluo.: fluorescence of the colonies [8]: —
Col.: color of the colonies [8]: Rust e
Growth [9]: NG
Fluo.: fluorescence of the colonies [9]: —
Col.: color of the colonies ([9]; examined visually): —
Growth [10]: 1
Fluo.: fluorescence of the colonies [10]: —
Col.: color of the colonies [10]: Rust
Growth [11]: NG
Fluo.: fluorescence of the colonies [11]: —
Col.: color of the colonies [11]: —
Growth [12]: NG
Fluo.: fluorescence of the colonies [12]: —
Col.: color of the colonies ([12]; examined visually): —
Growth [13]: 1
Fluo.: fluorescence of the colonies [13]: —
Col.: color of the colonies [13]: Rust
Growth [14]: 2
Fluo.: fluorescence of the colonies [14]: —
Growth [15]: 2
Growth [16]: 2
Growth [17]: 2
Col.: color of the colonies ([17]; examined visually): Rust
